These are literature values, as cited in US20060194715A1, “Proteins encoded by ble genes and antibiotics from the bleomycin family” (priority 2002, published 2006).

Several values for one entry are separate records, joined by “and”; a condition that tells them apart may be missing. Identical values can stand only once. Like-named read-outs stand apart in the source and are kept apart here.

For the series, the target named is T1, Sh ble protein (Streptoalloteichus hindustanus, UniProt P17493).
T1 sequence (P17493 1-124): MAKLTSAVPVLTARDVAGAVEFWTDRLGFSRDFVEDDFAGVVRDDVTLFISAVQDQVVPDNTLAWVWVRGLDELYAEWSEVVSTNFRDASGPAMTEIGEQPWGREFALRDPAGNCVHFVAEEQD

As for bleomycin, the Kd by setting is: (first bleomycin molecule bound, read-out: first affinity (single molecule of bleomycin bound to Sh ble dimer)) about 0.6 µM; (second bleomycin molecule bound, read-out: second affinity (two molecules of bleomycin bound to Sh ble dimer)) ~0.1 µM and ≤ 0.1 µM.
